# Data taken from publication PMC12188165, “Engineering of the Thiamine Diphosphate‐Dependent JanthE for the Synthesis of Tertiary Alcohols” (Chemistry (Weinheim an Der Bergstrasse, Germany), 2025).
# Where two headings read alike, the source gives them in different places.
# B1: JanthE (Janthinobacterium sp. HH01) (protein)
# chain: MQDNKVKVAELVAEALENLGIQHAFGIIGAGNVHLFEAIARRGYTEIVCVHHEQAACMAVQTYYRTNGRIAAALLTTGAGSTNGVTGVVSAWADSIPCIVIAGNENSKFTFPENPLRMWGVQGYDSCQMVERVSKYQMRVTKMERAVYELEKGVHLALEGRPGPTWIEIPMDIQSGRIDPATLEHYVAPPAPDYLTPAVAAQVDSVLAALAKAERPVLWLGNGIRLAGGERLLKPLLEKLGSPALVSWAGIDMLDSSHPLVFGRAGVYGQRAANFILQNSDYVLAIGTRLAIPQIGYDLNELARLARIDVVDIDGDEAIKHAKRTQENIVCDARVFIEALLARLNAADAPAIASKADWVAKCRAYEEQFPWVGAEHADPEGFINSYRFMERLNGFFKDDQVVVTDMGTALLSGHQVLRFKEGQRFMTSTGLGEMGYGLPAALGVSFANDRGEVMCLNCDGGMMMNLQELQTMVHHNLPIKLFIFNNDGYLMIKHTQKSLFKSDYVGTDRKSGVSCPDFSRLAAAFDIPAYQIRGWDECDATLAKVQAHTGPVICEVFMHPQQLFSPKLGVVSRADGTLVSPPLEDLSPLIPRDVLEQAMIGGMHEKSKTL
# notes: purified enzyme; expression and tag details only in supplement
# Experiments:
# [1] = target: T1, JanthE (Janthinobacterium sp. HH01, UniProt A0AAT8XUE4, K568S, form not given); experiment: initial-rate kinetics, formation of product […]; type: biochemical; settings: 1 mM Mg2+, 0.05 mM ThDP, 200 mM NaCl, 100 mM sodium phosphate pH 8, read-out: K567S
# T1 construct: purified enzyme; expression and tag details only in supplement
# [2] = substrate: CC(=O)COc1ccccc1; experiment: purified protein; type: biochemical, Janthinobacterium sp. HH01; settings: 50 mM 2-oxobutanoate co-substrate, 1 mM Mg2+, 0.05 mM ThDP, 200 mM NaCl, 100 mM sodium phosphate pH 8
# [3] = substrate: CCC(=O)C(=O)O; experiment: purified protein; type: biochemical, Janthinobacterium sp. HH01; settings: 20 mM phenoxy-2-propanone co-substrate, 1 mM Mg2+, 0.05 mM ThDP, 200 mM NaCl, 100 mM sodium phosphate pH 8
# T1 sequence (A0AAT8XUE4 entry or part of it K568S, form open): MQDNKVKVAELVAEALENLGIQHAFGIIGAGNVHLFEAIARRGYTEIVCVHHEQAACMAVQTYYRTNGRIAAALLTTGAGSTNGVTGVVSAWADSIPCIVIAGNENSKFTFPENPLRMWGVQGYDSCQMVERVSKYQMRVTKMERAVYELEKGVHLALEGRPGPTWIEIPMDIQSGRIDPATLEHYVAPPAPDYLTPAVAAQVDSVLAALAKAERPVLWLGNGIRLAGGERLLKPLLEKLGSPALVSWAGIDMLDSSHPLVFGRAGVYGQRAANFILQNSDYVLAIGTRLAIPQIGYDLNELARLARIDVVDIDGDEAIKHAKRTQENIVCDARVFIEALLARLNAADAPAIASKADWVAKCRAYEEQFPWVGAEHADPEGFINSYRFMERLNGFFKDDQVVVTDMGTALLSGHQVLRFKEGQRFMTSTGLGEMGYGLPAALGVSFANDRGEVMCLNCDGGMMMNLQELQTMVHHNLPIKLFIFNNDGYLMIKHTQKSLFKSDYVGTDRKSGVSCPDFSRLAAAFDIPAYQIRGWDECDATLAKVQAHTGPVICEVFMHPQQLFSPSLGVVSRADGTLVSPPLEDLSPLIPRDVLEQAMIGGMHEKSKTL
molecule,measurement,setting,value
"CCC(=O)C(=O)O [compound 2, 2-oxobutanoate]",Km,[1]; 20 mM phenoxy-2-propanone co-substrate,0.74 ± 0.31 mM
"CC(=O)COc1ccccc1 [compound 6, phenoxy-2-propanone]",Km,[1]; 50 mM 2-oxobutanoate co-substrate,31.8 ± 6 mM
B1,Km,[2],24.6 ± 3.8 mM
same,Km,[3],0.92 ± 0.26 mM
